The values that follow come from US20220226484A1, “THERAPEUTIC PEPTIDES” (COHBAR, INC., priority 2019, published 2022).

Non-standard residues stand in square brackets, D forms with d. Primed or numbered codes have the meaning given here. No end group written: not given here. PEG12′ = not defined here A value given as a limit tells only on which side of the number the result lay.

Test [1] relates to bleomycin-induced lung fibrosis in male C57BL/6 mice. The test can be described thus: Therapeutic mouse model of idiopathic pulmonary fibrosis (bleomycin). The test is classed as in vivo. Particulars: peptide 5 mg/kg/day intraperitoneal, nintedanib 60 mg/kg/day PO. The text has this:
The effect of the peptides on the progression of established lung fibrosis can be assessed by monitoring lung fibrosis, lung weight, inflammatory cells in bronchoalveolar lavage fluid (BALF), soluble collagen in BALF, and body weight change in a therapeutic mouse model of idiopathic pulmonary fibrosis. Lung fibrosis was induced in lungs of male C57BL/6 mice between the ages of 6 to 8 weeks by nasophayngeal administration of bleomycin (1.5 U/kg using bleomycin clinical formulation diluted in PBS). A control group of animals were administered saline by the nasopharyngeal route (no-bleomycin control group). After one week, bleomycin-treated animals were randomized to treatment groups (N=10 per group) by body weight and treated daily with vehicle control, nintedanib positive control (60 mg/kg/day PO) or peptide (5 mg/kg/day by intraperitoneal injection). After 14 days of treatment (Day 21), lungs were removed and weighed. The post-caval lobe was separated and snap frozen. The lungs were flushed with Hanks Buffer and bronchoalveolar lavage fluid (BALF) was harvested from each animal. Total BALF leukocyte were counted. Slides were prepared from the remaining BALF leukocytes, fixed and stained with May Geimsa stain and the differential counts were recorded manually. BALF was evaluated for soluble collagen using a Sircol assay. Lungs were fixed in 10% neutral buffered formalin (NBF) for histopathological analysis. Fibrosis was assessed by histopathological analysis of H&E stained mouse lungs using an Ashcroft scoring system.

In test [2] the test system is DSS-induced colitis in female C57BL/6NTac mice. Description: DSS-induced colitis mouse model of inflammatory bowel disease. The test is classed as in vivo. The conditions noted are these: 3% DSS 8 days; peptides 10 mg/kg/day intraperitoneal; CsA 80 mg/kg/day oral; AUC over 8 days.
Protocol: The effect of the peptides on inflammatory disease can be assessed by monitoring fecal blood, stool consistency, and body weight loss in a DSS-induced colitis mouse model. Colitis was induced in female C57BL/6NTac mice (9-11 weeks old) by continuous ad libitum oral administration of dextran sodium sulfate (DSS) 3% in sterile drinking water for 8 days. Control (No DSS) mice received sterile water instead of DSS solution. Peptides were administered intraperitoneally once daily at 10 mg/kg/day for 8 days in combination with oral DSS. […] Daily assessments included body weight loss score, fecal blood score, stool consistency score, and composite disease activity index (DAI) score, based on the first three parameters combined. Scores recorded on each day over 8 days were used to calculate area under the curve (AUC) values for each endpoint in individual animals.
The subject of test [3] is 3T3-L1 Mouse Adipocytes. The test can be described thus: Insulin-dependent effect on free fatty acid levels in cultured mouse adipocytes. The test is classed as cell-based. As for the experimental part:
The effect of the peptides on fatty acid metabolism was assessed in the absence and presence of insulin using an assay of free fatty acid levels in cultured cells such as mouse adipocytes. Peptides were initially prepared as 10 mM stock in DMSO and used at a final concentration of 10 μM (0.1% DMSO). […] Insulin (0.25 nM) was used as a partial inhibitor and insulin (10 nM) was used as a potent inhibitor of isoproterenol stimulated fatty acid production. Mouse 3T3-L1 cells purchased from ZenBio (Research Triangle Park, N.C.) were seeded at 3,000 cells per well on 96-well plates in Pre-Adipocyte Medium (Zen-Bio) and grown to confluence at 37° C. in a humidified atmosphere of 5% CO2/95% air. Two days after confluence, cells were placed in Adipocyte Differentiation Medium (Zen-Bio) and cultured for three additional days at 37° C. in a humidified atmosphere of 5% CO2/95% air. The culture medium was then partially replaced with Adipocyte Maintenance Medium (Zen-Bio) and the cells maintained at 37° C. in a humidified atmosphere of 5% CO2/95% air with partial medium replacement every other day. At 12 day of differentiation, 96-well cultures were transferred to Adipocyte Maintenance Medium without insulin and placed at 37° C. in a humidified atmosphere of 5% CO2/95% air for two days. Following this incubation period, the medium was removed from 14 day differentiated cultures and replaced with Assay Buffer (Zen-Bio) containing peptides (10 μM), insulin (0.25 nM or 10 nM), isoproterenol (0.1 nM) as appropriate. […] isoproterenol was added to all wells except untreated controls. Insulin at 0.1 nM and 10 nM was added to control wells. Peptides (10 μM) in the absence or presence of insulin (0.25 nM) were added to test wells. Cells in the presence of compounds were placed at 37° C. in a humidified atmosphere of 5% CO2/95% air for 3 hours. At the end of the final 3 h incubation, conditioned assay buffer was removed from each well and place in a fresh 96-well plate for quantitation of free fatty acid content. Free fatty acid concentrations in the assay buffer samples were determined using a Free Fatty Acid Assay kit (Zen-Bio) according to the manufacturer's instructions using a Cytation 3 plate reader at 540 nm (BioTek, Winooski, VD. Absorbance values were corrected for untreated background and expressed as a percent of isoproterenol (0.1 nM) treated control cells for peptides alone or isoproterenol (0.1 nM)+insulin (0.25 nM) for peptides in presence of insulin (0.25 nM). Treatment with isoproterenol […] alone was used as the free fatty acid level stimulatory control. The relative standard deviation of the isoproterenol control was <10%. […] Free fatty acid levels for insulin (10 nM) treatment were <5% of the isoproterenol control value. Free fatty acid levels for insulin (0.25 nM) treatment were 60-80% of the isoproterenol control value.

The next test has as its system H4IIE Rat Hepatoma Cells. Description: Insulin-dependent effect on glucose production by cultured rat liver cells. Particulars: insulin 800 pM. The class given is cell-based. The procedure:
The effect of the peptides on glucose production was assessed in the absence and presence of insulin using an assay of glucose levels in cultured cells such as rat hepatocytes. Peptides were initially prepared as 10 mM stock in DMSO and used at a final concentration of 10 μM (0.1% DMSO). Insulin (800 pM) was used as a partial inhibitor of glucose production. H4-IIE cells purchased from ATCC (Manassas, Va.) were seeded at 100,000 cells/well in standard medium (DMEM/high glucose+10% FBS+1× Glutamax+antibiotics) on 96-well plates and allowed to adhere overnight at 37° C. in a humidified atmosphere of 5% CO2/95% air. Approximately 24 h after seeding, the medium was removed, cells rinsed with glucose free DMEM, and Glucose Production Medium (glucose free DMEM+2 mM sodium pyruvate+10 mM sodium lactate) was added. The cultures were placed at 37° C. in a humidified atmosphere of 5% CO2/95% air overnight. The next morning, the medium was removed and fresh Glucose Production Medium containing compounds was added. Insulin at 800 pM was added to control wells. Peptides (10 μM) in the absence or presence of insulin (800 pM) were added to test wells. Cells in the presence of compounds were placed at 37° C. in a humidified atmosphere of 5% CO2/95% air overnight. After 24 hour incubation, conditioned medium from each well was transferred to a fresh 96-well plate for quantitation of glucose content. Quantitation of glucose levels was determined using an Amplex Red Glucose Assay kit (Abacm; Cambridge, Mass.) according to the manufacturer's instructions using a Cytation 3 plate reader at 570 nm (BioTek, Winooski, Vt.). Absorbance values were expressed as a percent of untreated control cells (maximum glucose production) for peptide alone samples or insulin (800 pM) for peptides in the presence of insulin (800 pM. Glucose levels for insulin (800 pM) treatment were ˜80-90% of the untreated control values. The results are reported in Table 15.

The subject of test [4] is 3T3-L1 Mouse Adipocytes. Description: Free fatty acid levels in cultured mouse adipocytes. The test is classed as cell-based. The conditions noted are these: insulin 100 nM, 1 nM isoproterenol. The procedure: The effect of the peptides on fatty acid metabolism can be assessed using an assay of free fatty acid levels in cultured cells such as mouse adipocytes. Peptides were initially prepared as 10 mM stock in DMSO and used at a final concentration of 10 μM (0.1% DMSO). […] Mouse 3T3-L1 cells purchased from ZenBio were seeded at 3,000 cells per well in 96-well plates in Pre-adipocyte Medium (Zen-Bio) and grown to confluence at 37° C. in a humidified atmosphere of 5% CO2/95% air. Two days after confluence, cells were placed in Adipocyte Differentiation Medium (Zen-Bio) and cultured for three additional days at 37° C. in a humidified atmosphere of 5% CO2/95% air. The culture media was then replaced with Adipocyte Maintenance Medium (Zen-Bio) and the cells maintained for an additional 9-12 days at 37° C. in a humidified atmosphere of 5% CO2/95% air with partial medium replacement every other day. Following 12-15 days of differentiation, test peptides were added at a final concentration of 10 μM in 0.1% DMSO and incubated for 20-22 hours in Adipocyte Maintenance Medium at 37° C. in a humidified atmosphere of 5% CO2/95% air. After 20-22 hours, 1 nM isoproterenol was added to all wells except untreated controls and test peptides were replenished. Insulin at 100 nM was added to control wells. Cells were incubated for 3 hours in Assay Buffer (Zen-Bio) at 37° C. in a humidified atmosphere of 5% CO2/95% air. Free fatty acid concentrations in the media were determined using a Free Fatty Acid Assay kit (Zen-Bio) according to the manufacturer's instructions using a Cytation 3 plate reader at 540 nm (BioTek, Winooski, Vt.). Absorbance values were corrected for untreated background and expressed relative to isoproterenol treated cells. Treatment with isoproterenol (1 nM) alone was used as the free fatty acid level stimulatory control. The relative standard deviation of the isoproterenol control was <10%. […] Free fatty acid levels for insulin (100 nM) treatment were <5% of the isoproterenol control value.
The effect of the peptides on fatty acid metabolism was assessed using an assay of free fatty acid levels in cultured cells such as mouse adipocytes. Peptides were initially prepared as 10 mM stock in DMSO and used at a final concentration of 10 μM (0.1% DMSO). […] Mouse 3T3-L1 cells purchased from ZenBio were seeded at 3,000 cells per well in 96-well plates in Pre-adipocyte Medium (Zen-Bio) and grown to confluence at 37° C. in a humidified atmosphere of 5% CO2/95% air. Two days after confluence, cells were placed in Adipocyte Differentiation Medium (Zen-Bio) and cultured for three additional days at 37° C. in a humidified atmosphere of 5% CO2/95% air. The culture media was then replaced with Adipocyte Maintenance Medium (Zen-Bio) and the cells maintained for an additional 9-12 days at 37° C. in a humidified atmosphere of 5% CO2/95% air with partial medium replacement every other day. Following 12-15 days of differentiation, test peptides were added at a final concentration of 10 μM in 0.1% DMSO and incubated for 20-22 hours in Adipocyte Maintenance Medium at 37° C. in a humidified atmosphere of 5% CO2/95% air. After 20-22 hours, 1 nM isoproterenol was added to all wells except untreated controls and test peptides were replenished. Insulin at 100 nM was added to control wells. Cells were incubated for 3 hours in Assay Buffer (Zen-Bio) at 37° C. in a humidified atmosphere of 5% CO2/95% air. Free fatty acid concentrations in the media were determined using a Free Fatty Acid Assay kit (Zen-Bio) according to the manufacturer's instructions using a Cytation 3 plate reader at 540 nm (BioTek, Winooski, Vt.). Absorbance values were corrected for untreated background and expressed relative to isoproterenol treated cells. Treatment with isoproterenol (1 nM) alone was used as the free fatty acid level stimulatory control. The relative standard deviation of the isoproterenol control was <10%. […]

Regarding `COC(=O)c1ccc2c(c1)NC(=O)/C2=C(\Nc1ccc(N(C)C(=O)CN2CCN(C)CC2)cc1)c1ccccc1` [Nintedanib, nintedanib, reference compound], in test [1] (Day 21, 14 days of treatment), the “Mean (SEM) Leukocyte Count in BALF (Percent of Bleomycin Control)” value is 62.4 (6.08) Percent, the “Mean (SEM) Lung Weight (Percent of Bleomycin Control)” value is on record as 75.2 (6.04) Percent and the “Mean (SEM) Percent Body Weight Change from Baseline” value was −7.95 (6.09) Percent. Further, the “Mean (SEM) Collagen Content in BALF (Percent of Bleomycin Control)” value in test [1] (Sircol assay, Day 21) is listed as 44.0 (6.48) Percent. In addition, in test [1] (histopathology, Day 21), the “Mean (SEM) Ashcroft Score (Percent of Bleomycin Control)” value was 78.70 (9.72) Percent.
Take “RVIRACLGVGLLGDL(dA)GK{PEG12} [SEQ ID NO: 29] (RVIRACLGVGLLGDL[dA]GK(PEG12′))”: in test [2], the “Mean (SEM) Body Weight Loss Score AUC” value was 2.10 (0.76), the “Mean (SEM) Composite Disease Activity Index (DAI) Score AUC” value is 19.8 (1.99), the “Mean (SEM) Fecal Blood Score AUC” value is listed as 12.8 (1.04) and the “Mean (SEM) Stool Consistency Score AUC” value is recorded as 5.05 (0.78).
The corresponding values for “RVIRACLGVGLLGDL(dA)GK{PEG12} [SEQ ID NO: 30] (RVIRACLGVGLLGDL[dA]GK(PEG12′); not fully specified; printed as RVIRACLGVGLLGDL(dA)GK{PEG12}) [possibly the dimer of this chain]” are 0.95 (0.69), 14.9 (0.86), 9.30 (0.44) and 4.65 (0.48).
In the case of “insulin: highly potent positive control for decreasing free fatty acid levels; partial inhibitor of glucose production”, the entries for the “Free fatty acid levels, % of the isoproterenol control value” in the test with 3T3-L1 Mouse Adipocytes [3] (insulin 0.25 nM), in the test with 3T3-L1 Mouse Adipocytes [3] (insulin 10 nM) and in the test on 3T3-L1 Mouse Adipocytes [4] were 60-80%, below 5% and below 5%, respectively. In addition, the “Glucose levels, % of the untreated control values” in the test with H4IIE Rat Hepatoma Cells is listed as 80-90%.
